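Test compounds were applied to cells in 96-well plates for 48 hours at 5 doses. Here, GI50 denotes the concentration required for 50% inhibition of growth. Definition used: TGI = concentration required for complete inhibition of growth.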 Peptide text beside a SMILES is read from it. * marks the point of attachment. X26 = Clc1c(Cl)c(Cl)c(O*)c(Cl)c1Cl; Boc = CC(C)(C)OC(=O)*; OBn = c1ccc(CO*)cc1; Bn = c1ccc(C*)cc1
How the values were obtained:
Assay in all cases: NCI-60 cell line screen, 48 h
HT29 colon = system: HT29 colon
SK-OV-3 ovarian = system: SK-OV-3 ovarian
RXF 393 renal = system: RXF 393 renal
MDA-MB-435 = system: MDA-MB-435
EKVX NSCLC = system: EKVX NSCLC
HOP-62 NSCLC = system: HOP-62 NSCLC
UO-31 renal = system: UO-31 renal
U251 CNS = system: U251 CNS
IGROV1 ovarian = system: IGROV1 ovarian

Structure (SMILES)	TGI (HT29 colon)	TGI (SK-OV-3 ovarian)	TGI (RXF 393 renal)	TGI (MDA-MB-435)	TGI (EKVX NSCLC)	TGI (HOP-62 NSCLC)	TGI (UO-31 renal)	TGI (U251 CNS)	TGI (IGROV1 ovarian)	GI50 (SK-OV-3 ovarian)	GI50 (RXF 393 renal)	GI50 (MDA-MB-435)	GI50 (EKVX NSCLC)	GI50 (HOP-62 NSCLC)	GI50 (UO-31 renal)	GI50 (U251 CNS)	GI50 (IGROV1 ovarian)
CC[N+]1(C)CCC(O)(c2ccc(C)cc2)C(C(=O)c2ccc(C)cc2)C1 (stereo not given)	> 100 µM	> 100 µM	84.9 µM	> 100 µM	> 100 µM	> 100 µM	> 100 µM	> 100 µM	> 100 µM								
CCN(CC)c1ccc(NC(=S)NN(C)C)cc1	> 10 µM	> 10 µM	> 10 µM	> 10 µM	> 10 µM	> 10 µM	> 10 µM	> 10 µM	> 10 µM								
CCCCCCc1cc2cc(-c3csc(-c4ccc(OC)cc4)n3)c(=O)oc2cc1O	> 100 µM	33.1 µM	29.2 µM	18.4 µM	45.1 µM	29.6 µM	19.8 µM	18.7 µM	19.1 µM								
CCCCN1C(=O)CC2[C@@H]3CCc4cc(OC)ccc4C3CC[C@]2(C)C1=O (stereo not given in full)	> 10 µM	> 10 µM	> 10 µM	> 10 µM	> 10 µM	> 10 µM	> 10 µM	> 10 µM	> 10 µM								
CC1(C)OC[C@@H](C[C@H](O)COCc2ccccc2)O1	> 100 µM	> 100 µM	> 100 µM	> 100 µM	> 100 µM	> 100 µM	> 100 µM	> 100 µM	> 100 µM								
COc1ccc(C2=C(Cl)C(=O)O/C2=C\c2ccc(OC)c(Br)c2)cc1Cl	> 100 µM	> 100 µM	46.3 µM	> 100 µM	90.8 µM	30.8 µM	> 100 µM	36.6 µM	> 100 µM								
N#Cc1nc(CCCN2C(=O)c3ccccc3C2=O)oc1N	> 100 µM	> 100 µM	> 100 µM	> 100 µM	> 100 µM	> 100 µM	> 100 µM	> 100 µM	> 100 µM								
NC(Cc1[nH]nc2ccccc12)C(=O)O (stereo not given)	> 100 µM	> 100 µM	> 100 µM	> 100 µM	> 100 µM	> 100 µM	> 100 µM	> 100 µM	> 100 µM								
Cc1nnc2n1-c1ccccc1N(Cc1ccccc1)CC2	> 100 µM	> 100 µM	> 100 µM	> 100 µM	> 100 µM	> 100 µM	> 100 µM	> 100 µM	> 100 µM								
NCCN(CCN(C(=O)Nc1ccccc1)c1ccccc1)C(=O)Nc1ccccc1	> 100 µM	44.9 µM	34.5 µM		67.3 µM	34.8 µM	39.3 µM	> 100 µM	36.7 µM								
Cc1cc(S(=O)(=O)Nc2n[nH]c(Nc3ccccc3)n2)c(SCC(=O)O)cc1Cl	> 100 µM	> 100 µM	> 100 µM	> 100 µM	> 100 µM	> 100 µM	> 100 µM	> 100 µM	> 100 µM								
Nc1nncc2[nH]cnc12	> 100 µM	> 100 µM	> 100 µM	> 100 µM	> 100 µM	> 100 µM	> 100 µM	> 100 µM	> 100 µM								
Clc1ccc(OCc2nnc(COc3ccc(OCc4nnc(COc5ccc(Cl)cc5Cl)o4)c(Cl)c3)o2)c(Cl)c1	87.5 µM		59.6 µM	> 100 µM	45.2 µM	> 100 µM	36.7 µM	54.7 µM	38.1 µM								
NCCCCNCCCNC(=O)CNC(=O)CC(O)C(N)CCCC(NC(=O)C(CN)NC(=O)C(O)CNC(=O)CC(N)c1ccc(O)cc1)C(=O)O (stereo not given)	> 10 µM	> 10 µM	> 10 µM	> 10 µM	> 10 µM	> 10 µM	> 10 µM	> 10 µM	> 10 µM								
Cc1ccc(C(=O)Cc2nc3c([nH]c2=O)c(C)nn3-c2ccccc2)c(C)c1	> 10 µM	> 10 µM		> 10 µM		> 10 µM		> 10 µM	> 10 µM								
Cc1cc(OCc2nnc3sc(NC(=O)c4ccccc4)nn23)ccc1Cl	> 100 µM	> 100 µM	83.3 µM	50.2 µM	89.7 µM	48.2 µM	35.2 µM	> 100 µM	68 µM								
CCCCCCCCCCCCNC(=O)CCC(NC(=O)c1ccc(N(C)Cc2cnc3nc(N)nc(N)c3n2)cc1)C(=O)NCCCCCCCCCCCC (stereo not given)	> 100 µM		43.3 µM	> 100 µM	> 100 µM	95.6 µM	> 100 µM	24.7 µM	> 100 µM								
CC(C)CC(NC(=O)C(CCC(=O)OCc1ccccc1)NC(=O)OC(C)(C)C)C(=O)NC(COCc1ccccc1)C(=O)NC(Cc1ccccc1)C(=O)Oc1c(Cl)c(Cl)c(Cl)c(Cl)c1Cl (stereo not given) (Boc-E(OBn)LS(Bn)F-X26; configuration not given here)	> 100 µM	83.8 µM	63.8 µM	95.3 µM	96.2 µM		50.2 µM	43.7 µM	56.3 µM								
Cc1ccc(S(=O)(=O)c2c(O)c3ccc(O)c(C)c3oc2=O)cc1	> 100 µM	> 100 µM	> 100 µM	> 100 µM	> 100 µM		> 100 µM	> 100 µM	> 100 µM								
C#CCOCC12C=CC(O1)C1COC(=O)C12 (stereo not given)	> 100 µM	> 100 µM	> 100 µM	> 100 µM	> 100 µM	> 100 µM	> 100 µM	> 100 µM	> 100 µM								
O=C1CS/C(=N/N=C/c2cn(Cc3ccc(Cl)cc3Cl)c3ccccc23)N1	> 100 µM	> 100 µM	77.2 µM	> 100 µM	48.5 µM	> 100 µM	> 100 µM	37.2 µM	> 100 µM								
C[n+]1c(-c2ccc(NC(=O)c3ccc(C(=O)Nc4ccc(-c5cn6ccccc6[n+]5C)cc4)cc3)cc2)cn2ccccc21	> 100 µM	> 100 µM	> 100 µM	> 100 µM	> 100 µM	> 100 µM	> 100 µM	> 100 µM	> 100 µM								
CCOc1snc(C(Cl)(Cl)Cl)c1Cl	28.9 µM	> 100 µM	27.6 µM	> 100 µM	79.4 µM	> 100 µM	45.5 µM	> 100 µM	> 100 µM								

Structure (SMILES)	TGI (HT29 colon)	TGI (SK-OV-3 ovarian)	TGI (RXF 393 renal)	TGI (MDA-MB-435)	TGI (EKVX NSCLC)	TGI (HOP-62 NSCLC)	TGI (UO-31 renal)	TGI (U251 CNS)	TGI (IGROV1 ovarian)	GI50 (SK-OV-3 ovarian)	GI50 (RXF 393 renal)	GI50 (MDA-MB-435)	GI50 (EKVX NSCLC)	GI50 (HOP-62 NSCLC)	GI50 (UO-31 renal)	GI50 (U251 CNS)	GI50 (IGROV1 ovarian)
Cc1nc(SCC(N)=O)c2sc(=S)n(-c3ccccc3)c2n1	> 10 µM	> 10 µM	> 10 µM	> 10 µM	> 10 µM	> 10 µM		> 10 µM	> 10 µM								
O=C1/C(=C/c2ccncc2)C(n2cccc2)c2c(Br)sc(Br)c21 (stereo not given)	23.5 µM	20.7 µM	3.96 µM	4.66 µM	8.87 µM	11.3 µM	5.42 µM	4.86 µM	4.67 µM								
CN(C)CCCNc1cc(O)c2c(c1O)C(=O)c1ccccc1C2=O	24 µM	24.8 µM	17 µM	29.2 µM	31.1 µM	23.3 µM	11.9 µM	27.2 µM	24.6 µM								
N#Cc1ccc(-c2nc(C#N)c(N)o2)cc1	> 10 µM	> 10 µM	> 10 µM	> 10 µM	> 10 µM	> 10 µM	> 10 µM		> 10 µM								
O=C(Sc1c(-c2ccccc2)c(=O)n(-c2ccccc2)c(=S)n1-c1ccccc1)c1ccco1	> 100 µM	> 100 µM	> 100 µM	> 100 µM	> 100 µM	> 100 µM	> 100 µM	> 100 µM	> 100 µM								
CCOC(=O)/C=C(/C=C\COC1CCCCO1)c1ccccc1 (stereo not given)	29.2 µM	> 100 µM	55.3 µM	> 100 µM	> 100 µM	> 100 µM	> 100 µM	96 µM	> 100 µM								
S=c1[nH]nc(Cn2c3ccc(Br)cc3c3nc4ccccc4nc32)n1C1CCCCC1	> 100 µM	83.7 µM	70.1 µM	> 100 µM	> 100 µM	> 63.5 µM	> 76.2 µM	> 67.6 µM	> 100 µM								
COc1cccc(N2C(=O)CS(=O)(=O)C2c2cccc(Oc3ccccc3)c2)c1 (stereo not given)	89.3 µM	> 100 µM	71.1 µM	> 100 µM	59.3 µM	> 100 µM	> 100 µM	49.7 µM									
CC1(C)N=C(N)N=C(N)N1c1cccc(OCc2cccc(N)c2)c1	> 100 µM	> 100 µM	> 100 µM	> 100 µM	> 100 µM	> 100 µM	> 100 µM	> 100 µM	> 100 µM								
O=P(OCc1ccccc1)(OCc1ccccc1)C(O)/C=C/c1ccccc1 (stereo not given)	45.4 µM	> 100 µM	> 100 µM	35.1 µM	95.6 µM	55.5 µM	80.3 µM	27.4 µM	49.2 µM								
COc1ccc2c(c1)-c1c(c3cc(OC)ccc3n1CCN(C)C)CC2	19.1 µM	37.1 µM	28.2 µM	26.4 µM		29.9 µM	23.1 µM	24.8 µM	25.9 µM								
Clc1cc(C(c2cc(Cl)sc2Cl)c2cc(Cl)sc2Cl)c(Cl)s1	> 100 µM	> 100 µM	> 100 µM	> 100 µM	> 100 µM	> 100 µM	> 100 µM	> 100 µM	> 100 µM								
C[C@H](c1ccccc1)N1C(=O)[C@@H](OCc2ccccc2)[C@H]1[C@H](COC(=O)COCc1ccccc1)OCc1ccccc1		> 100 µM		> 100 µM	> 100 µM	> 100 µM	> 100 µM	> 100 µM	> 100 µM								
CC(=O)N(C)c1ccc(Nc2ccnc3ccc4nn(C)nc4c23)cc1	> 100 µM	47.6 µM	48.1 µM	> 100 µM	76.1 µM	84.3 µM	29.2 µM	> 100 µM									
O=C1c2cccnc2S(=O)(=O)N1c1ccc([N+](=O)[O-])cc1	> 100 µM	> 100 µM		> 100 µM	> 100 µM	> 100 µM	> 100 µM	> 100 µM	> 100 µM								
C=C1CC(COc2ccc3c(C)c(C)c(=O)oc3c2C)(c2ccccc2)OC1=O (stereo not given)	3.27 µM	13.4 µM		7.96 µM	20.8 µM	20.8 µM	7 µM	20.3 µM	3.47 µM								
Oc1c(OCc2nnc(CCCCCCCCc3nnc(COc4ccc5ccccc5c4O)o3)o2)ccc2ccccc12	> 100 µM	> 100 µM	> 100 µM	> 100 µM	> 100 µM		> 100 µM	> 100 µM									
CCN(CCCCCCCCCCN1CC(=O)N(CCCCCCCCCCN(CC)Cc2ccccc2OC)CC1=O)Cc1ccccc1OC		3.68 µM	1.93 µM	2.96 µM	8.14 µM	3.05 µM	3.25 µM	2.58 µM	3.62 µM	1.83 µM	0.646 µM	1.31 µM	1.82 µM	1.56 µM	1.09 µM	1.15 µM	1.57 µM
CC(C)(C)c1cc(/C=C2/NC(=O)NC2=O)cc(C(C)(C)C)c1O	31.7 µM	32 µM	19.7 µM	33.4 µM	24 µM	33.1 µM		25.8 µM	31.1 µM								
CC(=O)C1(O)CCC2(O)C3(O)CC=C4CC(O)CCC4(C)C3CC(OC(=O)c3ccc(O)cc3)C12C (stereo not given)	> 100 µM	> 100 µM		> 100 µM	> 100 µM	> 100 µM	> 100 µM	> 100 µM	> 100 µM								
CCC(=O)Nc1ccc(NS(=O)(=O)c2ccc(Cl)cc2)cc1	> 100 µM	> 100 µM	> 100 µM	> 100 µM	> 100 µM	> 100 µM	> 100 µM		> 100 µM								
CCN1CCN(Cc2ccc(NC(=O)Nc3ccc(-n4ccc5c(NC(=O)c6ccccc6)nccc54)cc3)cc2C(F)(F)F)CC1		10.5 µM							4.39 µM	1.8 µM							1.42 µM

Reference: PubChem BioAssay (NCI)
